Test results reported in patent publication US20250009742A1 (priority 2021, published 2025).

Tests used:
[1] = Cell viability assay (EZ-Cytox), cytotoxicity; assay type: cell-based; settings: human, HepAD38 cells; for viability at 65 h, 100 µM: read-out: Cytotoxicity % Livability (@100 μM)
Procedure: HepAD38 cells were cultured for 2 days in Dulbecco's Modified Eagle's medium (Welgene, LM001-05) supplemented with 10% FBS without tetracycline. […] After 65 hours of treatment, viability was measured using EZ-Cytox cell viability assay kit (Daeil Lab Service) according to the manufacturer's instructions. The absorbance was measured at 450 nm using a spectrophotometer (Spark, Tecan).

intracellular HBV DNA = experiment: Real-time PCR for intracellular HBV DNA in HepAD38 cells; assay type: cell-based; settings: Hepatitis B virus, HePAD38, 65 h, 65 hours treatment

Row | Compound | CC50 at 65 h [1] | viability at 65 h, 100 µM [1] | IC50 (intracellular HBV DNA)
1 | COc1cc(N(Cc2cc(C(F)(F)F)[nH]n2)C(=O)Nc2ccc(F)c(C#N)c2)cnn1 [Example 163, 3-(3-cyano-4-fluorophenyl)-1-(6-methoxypyridazin-4-yl)-1-((5-(trifluoromethyl)-1H-pyrazol-3-yl)methyl)urea] | > 100000 nM | 99% | 7 nM
2 | COc1ncc(N(Cc2n[nH]c(C(F)(F)F)c2Br)C(=O)Nc2ccc(F)c(C(F)F)c2)cn1 [Example 194, 1-((4-bromo-5-(trifluoromethyl)-1H-pyrazol-3-yl)methyl)-3-(3-(difluoromethyl)-4-fluorophenyl)-1-(2-methoxypyrimidin-5-yl)urea] | > 100000 nM | – | 21 nM
3 | COc1ncc(N(Cc2cc(C(F)(F)F)[nH]n2)C(=O)Nc2ccc(C#N)c(Cl)c2)cn1 [Example 7, 3-(3-chloro-4-cyanophenyl)-1-(2-methoxypyrimidin-5-yl)-1-((5-(trifluoromethyl)-1H-pyrazol-3-yl)methyl)urea] | > 100000 nM | 59.3% | 19 nM
4 | COc1ncc(N(Cc2cc(C(F)(F)F)[nH]n2)C(=O)Nc2cccc(C#N)c2)cn1 [Example 144, 3-(3-cyanophenyl)-1-(2-methoxypyrimidin-5-yl)-1-((5-(trifluoromethyl)-1H-pyrazol-3-yl)methyl)urea] | 59900 nM | 6.3% | 220 nM
5 | N#Cc1cc(N(Cc2n[nH]c3c2CCCO3)C(=O)Nc2ccc(F)c(Cl)c2)ccn1 [Example 122, 3-(3-chloro-4-fluorophenyl)-1-(2-cyanopyridin-4-yl)-1-((1,4,5,6-tetrahydropyrano[2,3-c]pyrazol-3-yl)methyl)urea] | > 100000 nM | – | 350 nM
6 | COc1cc(C)c(N(Cc2cc(C(F)(F)F)[nH]n2)C(=O)Nc2ccc(F)c(Cl)c2)c(C)c1 [Example 29, 3-(3-chloro-4-fluorophenyl)-1-(4-methoxy-2,6-dimethylphenyl)-1-((5-(trifluoromethyl)-1H-pyrazol-3-yl)methyl)urea] | 12200 nM | 6.9% | > 1100 nM
7 | COc1ncc(N(Cc2cc(C(F)(F)F)[nH]n2)C(=O)Nc2cc(N(C)C)c(F)c(Cl)n2)cn1 [Example 138, 3-(6-chloro-4-(dimethylamino)-5-fluoropyridin-2-yl)-1-(2-methoxypyrimidin-5-yl)-1-((5-(trifluoromethyl)-1H-pyrazol-3-yl)methyl)urea] | > 100000 nM | 71.9% | > 1100 nM
8 | COc1ccc(N(Cc2cc(C(F)F)[nH]n2)C(=O)Nc2ccc(F)c(Cl)c2)cn1 [Example 72, 3-(3-chloro-4-fluorophenyl)-1-((5-(difluoromethyl)-1H-pyrazol-3-yl)methyl)-1-(6-methoxypyridin-3-yl)urea] | > 66600 nM | 48.5% | 48 nM
9 | Cc1cc(N(Cc2n[nH]c3c2CCCO3)C(=O)Nc2ccc(F)c(Cl)c2)no1 [Example 26, 3-(3-chloro-4-fluorophenyl)-1-(5-methylisoxazol-3-yl)-1-((1,4,5,6-tetrahydropyrano[2,3-c]pyrazol-3-yl)methyl)urea] | > 100000 nM | 93% | > 1100 nM
10 | CC(=O)c1ccc(N(Cc2n[nH]c3c2CCCO3)C(=O)Nc2ccc(F)c(Cl)c2)cn1 [Example 20, 1-(6-acetylpyridin-3-yl)-3-(3-chloro-4-fluorophenyl)-1-((1,4,5,6-tetrahydropyrano[2,3-c]pyrazol-3-yl)methyl)urea] | > 100000 nM | – | > 1100 nM
11 | COc1ncc(N(Cc2cc(C(F)F)[nH]n2)C(=O)Nc2ccc(F)c(C(F)F)n2)cn1 [Example 196, 1-((5-(difluoromethyl)-1H-pyrazol-3-yl)methyl)-3-(6-(difluoromethyl)-5-fluoropyridin-2-yl)-1-(2-methoxypyrimidin-5-yl)urea] | 76400 nM | 29.2% | 160 nM
12 | COc1ncc(N(Cc2n[nH]c(C(F)F)c2Br)C(=O)Nc2ccc(F)c(C(F)F)c2)cn1 [Example 197, 1-((4-bromo-5-(difluoromethyl)-1H-pyrazol-3-yl)methyl)-3-(3-(difluoromethyl)-4-fluorophenyl)-1-(2-methoxypyrimidin-5-yl)urea] | 79100 nM | 11.5% | 19 nM
13 | COc1ncc(N(Cc2n[nH]c(C(F)(F)F)c2C(C)(C)O)C(=O)Nc2ccc(F)c(Cl)c2)cn1 [Example 102, 3-(3-chloro-4-fluorophenyl)-1-((4-(2-hydroxypropan-2-yl)-5-(trifluoromethyl)-1H-pyrazol-3-yl)methyl)-1-(2-methoxypyrimidin-5-yl)urea] | > 66000 nM | 3.8% | > 1100 nM
14 | COc1ncc(N(Cc2cc(C(F)(F)F)[nH]n2)C(=O)Nc2nccc(-n3ccnc3)c2F)cn1 [Example 3, 3-(3-fluoro-4-(1H-imidazol-1-yl)pyridin-2-yl)-1-(2-methoxypyrimidin-5-yl)-1-((5-(trifluoromethyl)-1H-pyrazol-3-yl)methyl)urea] | > 100000 nM | 74.2% | > 1100 nM
15 | COc1ncc(N(Cc2cc(C(F)F)[nH]n2)C(=O)Nc2cccc(C(F)F)c2)cn1 [Example 178, 1-((5-(difluoromethyl)-1H-pyrazol-3-yl)methyl)-3-(3-(difluoromethyl)phenyl)-1-(2-methoxypyrimidin-5-yl)urea] | > 100000 nM | 68.5% | 22 nM
16 | COc1ncc(N(Cc2n[nH]c(C(F)(F)F)c2C(C)(C)O)C(=O)Nc2ccc(F)c(C(F)F)c2)cn1 [Example 207, 3-(3-(difluoromethyl)-4-fluorophenyl)-1-((4-(2-hydroxypropan-2-yl)-5-(trifluoromethyl)-1H-pyrazol-3-yl)methyl)-1-(2-methoxypyrimidin-5-yl)urea] | > 100000 nM | 87.7% | 740 nM
17 | CS(=O)(=O)Nc1ccc(N(Cc2n[nH]c3c2CCOC3)C(=O)Nc2ccc(F)c(Cl)c2)cc1 [Example 16, N-(4-(3-(3-chloro-4-fluorophenyl)-1-((1,4,5,7-tetrahydropyrano[3,4-c]pyrazol-3-yl)methyl)ureido)phenyl)methanesulfonamide] | 97600 nM | – | > 1100 nM
18 | COc1ncc(N(Cc2cc(C(F)(F)F)[nH]n2)C(=O)Nc2cccc(C(F)(F)F)n2)cn1 [Example 225, 1-(2-methoxypyrimidin-5-yl)-1-((5-(trifluoromethyl)-1H-pyrazol-3-yl)methyl)-3-(6-(trifluoromethyl)pyridin-2-yl)urea] | > 100000 nM | 105% | 210 nM
19 | COc1ncc(N(Cc2cc(C(F)(F)F)[nH]n2)C(=O)Nc2ccc(C#N)c(C(F)F)c2)cn1 [Example 152, 3-(4-cyano-3-(difluoromethyl)phenyl)-1-(2-methoxypyrimidin-5-yl)-1-((5-(trifluoromethyl)-1H-pyrazol-3-yl)methyl)urea] | > 100000 nM | 82.7% | 26 nM
20 | COc1ncc(N(Cc2cc(C(F)(F)F)[nH]n2)C(=O)Nc2cc(N(C)C)c(F)c(C#N)n2)cn1 [Example 164, 3-(6-cyano-4-(dimethylamino)-5-fluoropyridin-2-yl)-1-(2-methoxypyrimidin-5-yl)-1-((5-(trifluoromethyl)-1H-pyrazol-3-yl)methyl)urea] | > 100000 nM | 100% | > 1100 nM
